From patent publication US8710233B2 (Gruenenthal GmbH, priority 2005, dated 2014) come the findings set out here.

What is called Ki is a measure of affinity in units of concentration, obtained from inhibition or displacement. In general, IC50 refers to the concentration that inhibits the measured activity by half. A higher IC50 goes with weaker potency. One may read the inhibition as the change of the read-out against control, counted positive when it falls.

Test [1] deals with T1, vanilloid receptor (VR1) (Homo sapiens, UniProt Q8NER1).
T1 construct: expressed in transfected cells; host or cells: CHO K1 cells (ECACC), stably transfected
T1 sequence (Q8NER1 whole entry): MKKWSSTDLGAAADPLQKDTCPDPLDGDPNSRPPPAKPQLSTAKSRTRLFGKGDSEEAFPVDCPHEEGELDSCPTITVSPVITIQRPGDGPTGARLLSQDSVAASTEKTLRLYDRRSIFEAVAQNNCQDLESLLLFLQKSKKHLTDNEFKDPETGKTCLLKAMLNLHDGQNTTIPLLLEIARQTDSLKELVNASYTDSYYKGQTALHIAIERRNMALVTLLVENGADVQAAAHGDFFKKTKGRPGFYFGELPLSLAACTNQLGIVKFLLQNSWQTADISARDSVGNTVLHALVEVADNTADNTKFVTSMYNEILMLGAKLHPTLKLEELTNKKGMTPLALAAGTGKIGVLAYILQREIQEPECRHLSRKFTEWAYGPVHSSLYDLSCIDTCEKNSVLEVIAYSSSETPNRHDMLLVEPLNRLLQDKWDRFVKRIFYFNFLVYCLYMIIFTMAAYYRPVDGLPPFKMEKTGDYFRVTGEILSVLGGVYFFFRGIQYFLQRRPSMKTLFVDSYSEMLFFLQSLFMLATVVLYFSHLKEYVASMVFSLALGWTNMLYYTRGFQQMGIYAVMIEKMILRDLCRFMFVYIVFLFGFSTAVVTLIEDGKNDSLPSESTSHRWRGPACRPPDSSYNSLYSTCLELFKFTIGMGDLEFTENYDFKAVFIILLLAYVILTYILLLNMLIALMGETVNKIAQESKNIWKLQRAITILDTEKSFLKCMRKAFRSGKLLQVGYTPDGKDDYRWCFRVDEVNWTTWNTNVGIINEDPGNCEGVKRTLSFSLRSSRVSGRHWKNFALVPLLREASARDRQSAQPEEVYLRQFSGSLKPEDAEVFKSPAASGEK
In words: FLIPR Ca2+ influx assay on CHO K1 cells transfected with the VR1 gene (pharmacological method II). In kind it is cell-based. The note with it: table 4; capsaicin; read-out: Ki (human) Cap.

Test [2] has as its target VR1/TRPV1 receptor (Homo sapiens, UniProt Q8NER1). In words: IC50 (human) after pH stimulus. The note with it: for IC50: table 4. In kind it is cell-based.
The target in test [3] is T2, vanilloid receptor 1 (VR1/TRPV1) of the rat species (Rattus norvegicus, UniProt O35433).
T2 construct: The spinal column is removed from decapitated rats; from tissue; host or cells: primary cells dissociated from rat dorsal root ganglia
T2 sequence (O35433 whole entry): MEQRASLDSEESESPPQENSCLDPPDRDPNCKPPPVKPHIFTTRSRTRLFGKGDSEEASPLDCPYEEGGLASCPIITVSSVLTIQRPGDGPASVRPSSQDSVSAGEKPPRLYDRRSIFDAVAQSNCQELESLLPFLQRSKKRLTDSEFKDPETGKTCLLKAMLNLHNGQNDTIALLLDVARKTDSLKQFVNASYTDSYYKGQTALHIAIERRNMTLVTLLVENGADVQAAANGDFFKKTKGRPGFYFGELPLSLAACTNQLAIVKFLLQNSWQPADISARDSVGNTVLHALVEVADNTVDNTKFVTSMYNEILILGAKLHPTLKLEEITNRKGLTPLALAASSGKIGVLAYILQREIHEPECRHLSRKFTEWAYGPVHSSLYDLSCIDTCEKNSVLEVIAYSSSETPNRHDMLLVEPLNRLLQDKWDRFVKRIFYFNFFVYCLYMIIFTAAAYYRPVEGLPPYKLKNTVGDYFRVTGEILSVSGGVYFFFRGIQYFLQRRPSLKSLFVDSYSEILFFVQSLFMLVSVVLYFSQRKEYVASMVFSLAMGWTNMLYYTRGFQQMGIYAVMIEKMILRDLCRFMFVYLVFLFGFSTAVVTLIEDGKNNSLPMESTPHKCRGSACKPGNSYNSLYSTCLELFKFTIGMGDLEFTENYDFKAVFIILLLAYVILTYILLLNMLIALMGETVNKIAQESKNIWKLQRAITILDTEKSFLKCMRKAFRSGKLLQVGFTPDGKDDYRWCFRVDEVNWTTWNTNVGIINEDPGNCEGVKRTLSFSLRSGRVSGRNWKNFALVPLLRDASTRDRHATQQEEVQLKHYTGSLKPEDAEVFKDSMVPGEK
In words: FLIPR Ca2+ influx assay on rat dorsal root ganglia cells (pharmacological method I). In kind it is cell-based. The note with it: table 4, capsaicin. An outline of the steps:
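Primary rat dorsal root ganglion cells loaded with 2 μM Fluo-4, Ca2+ influx read on FLIPR as peak fluorescence. Triplicates, at least 3 independent experiments.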

Test [4] deals with capsaicin induced hypothermie. The test is described as follows: Hypothermie assay in the mouse (capsaicin induced hypothermie). In kind it is in vivo. The note with it: 0.3 mg/kg body weight po; mouse; read-out: inhibition hypothermie (n = 5). On the procedure:
V. Hypothermie Assay an der Maus
Male NMRI mice (weight 25-35 gram, supplier IFFA CREDO, Bruxelles, Belgium) are used in the hypothermie assay. The animals are kept under standardized conditions: light/darkness interval (6:00 to 18:00 light; 18:00 to 6:00 Uhr darkness), room temperature 19-22° C., relative humidity 35-70%, 15 times per hour change of compartment air, airflow <0.2 m/sec. The animals were fed on a standardized diet (ssniff diet, ssniff Spezialdiäten GmbH, Soest, Germany) and tap water. Water and diet were detracted during the experiment. All animals were used once in the experiment. The animals were allowed to adapt to the experimental conditions for at least 5 days.
The acute application of capsaicin (VR-1 agonist) leads to a decrease of the core body temperature in rat and mice via stimulation of heat sensors. Only compounds which act as specific VR-1-receptor antagonists can antagonize the capsaicin induced hypothermie. In contrast, morphine induced hypothermie is not antagonized by VR-1 antagonists. Thus, this experiment is suitable for the determination of compounds that act as VR1-antagonists via their effect on the core body temperature.
For the determination of the core body temperature a digital thermometer was used (Thermalert TH-5, physitemp, Clifton N.J., USA). The measuring head was inserted into the rectum.
The individual basis value is determined by measuring the body temperature twice in an interval of about half an hour. […] […] The test compound is given 10 min (i.v.) or 15 min (p.o.), respectively, before application of capsaicin. The body temperature is determined 7.5/15 and 30 min after application of capsaicin (i.v.+i.p.) or 15/30/60/90/120 min after application of capsaicin (p.o.+i.p.), respectively. In addition, another group of mice is only given the test compound or a vehicle control.
The measuring points are given as average values±S.E.M. of the absolute values. The antagonistic effect is given in percent of inhibition of capsaicin induced hypothermie.

Read-outs that look alike come from different tables or passages of the source.

Chain of VR1/TRPV1 receptor (Q8NER1 whole entry): as the sequence (Q8NER1 whole entry) above

For the compound `CCCN(CCC)c1nc(C(F)(F)F)ccc1CNC(=O)C(C)c1ccc(NS(C)(=O)=O)c(F)c1` (stereo not shown) [Example 16, N-((2-(dipropylamino)-6-(trifluoromethyl)pyridin-3-yl)methyl)-2-(3-fluoro-4-(methylsulfonamido)phenyl)propanamide], the Ki came to 0.2 nM in test [1] and 0.8 nM in test [3] (read-out: Ki (rat) Cap.). The compound further showed an IC50 in test [2] of 14.7 nM. Further, the inhibition in vivo at 0.3 mg/kg in test [4] was 12%.
On the same counts, the results for `C[C@@H](C(=O)NCc1ccc(C(F)(F)F)cc1N1CCCCC1)c1ccc(NS(C)(=O)=O)c(F)c1` [Example 32, (R)-2-(3-fluoro-4-(methylsulfonamido)phenyl)-N-(2-(piperidin-1-yl)-4-(trifluoromethyl)benzyl)propanamide] are 1.7 nM, 2.6 nM, 135 nM and 55%.
On to `CC(C(=O)NCc1ccc(C(F)(F)F)nc1-n1ccnc1)c1ccc(NS(C)(=O)=O)c(F)c1` (stereo not shown) [Example 87, 2-(3-fluoro-4-methylsulfonamido-phenyl)-N-((6-(trifluoromethyl)-2-(1H-imidazol-1-yl)pyridin-3-yl)methyl)-propionamide], for which half-maximal inhibition in test [2] (IC50) required 2570 nM. For the same compound, in test [3] (read-out: Ki (rat) Cap.), the Ki stood at 143 nM. In addition, the inhibition in vivo at 0.3 mg/kg in test [4] was 0%.
`CC(C(=O)NCc1ccc(C(F)(F)F)nc1-c1ccc(F)cc1)c1ccc(NS(C)(=O)=O)c(F)c1` (stereo not shown) [Example 89]: the Ki in test [1] is 0.4 nM; in test [3] (read-out: Ki (rat) Cap.) it was 1.2 nM. The same compound yielded a half-maximal inhibitory concentration (IC50) in test [2] of 131 nM. The inhibition in vivo at 0.3 mg/kg in test [4] turned out to be 1%.
Take `CCCCCCOc1nc(C(F)(F)F)ccc1CNC(=O)[C@@H](C)c1ccc(NS(C)(=O)=O)c(F)c1` [Example 93, (S)-2-(3-fluoro-4-methylsulfonamido-phenyl)-N-(2-hexyloxy-6-trifluoromethyl-pyridin-3-ylmethyl)-propionamide]: the figures for the Ki in test [1] and in test [3] (Ki (rat) Cap.) were 0.4 nM and 0.2 nM, respectively. For the same compound, in test [2], the IC50 is 12.3 nM. Moreover, in test [4], the inhibition in vivo at 0.3 mg/kg stood at 4%.
For `CC(C(=O)NCc1ccc(C(F)(F)F)nc1OCC1CC1)c1ccc(NS(C)(=O)=O)c(F)c1` (stereo not shown) [Example 100, N-(2-cyclopropylmethoxy-6-trifluoromethyl-pyridin-3-ylmethyl)-2-(3-fluoro-4-methylsulfonamido-phenyl)-propionamide], in that order: 1.1 nM, 1.2 nM, 115 nM and 26%.
For `COc1cccc(COc2nc(C(F)(F)F)ccc2CNC(=O)C(C)c2ccc(NS(C)(=O)=O)c(F)c2)c1` (stereo not shown) [Example 107, 2-(3-fluoro-4-methylsulfonamido-phenyl)-N-[2-(3-methoxy-benzyloxy)-6-trifluoromethyl-pyridin-3-ylmethyl]-propionamide], in that order: 0.8 nM, 1 nM, 43.7 nM and 21%.
Take `CC(C(=O)NCc1ccc(C(F)(F)F)nc1Nc1ccccc1)c1ccc(NS(C)(=O)=O)c(F)c1` (stereo not shown) [Example 110, 2-(3-fluoro-4-methylsulfonamido-phenyl)-N-(2-phenylamino-6-trifluoromethyl-pyridin-3-ylmethyl)-propionamide]: the Ki was 59.6 nM in test [1] and 63.1 nM in test [3] (read-out: Ki (rat) Cap.). This compound also registered an IC50 in test [2] of 1400 nM. The inhibition in vivo at 0.3 mg/kg in test [4] amounted to 13%.
For the compound `C[C@@H](C(=O)NCc1ccc(C(F)(F)F)nc1-c1ccc(F)c(Cl)c1)c1ccc(NS(C)(=O)=O)c(F)c1` [Example 121, (R)-N-[2-(3-chloro-4-fluoro-phenyl)-6-trifluoromethyl-pyridin-3-ylmethyl]-2-(3-fluoro-4-methylsulfonamido-phenyl)-propionamide], the Ki in test [1] turned out to be 13.2 nM; in test [3] (read-out: Ki (rat) Cap.) it was 5.8 nM. The inhibition at 10 µM in test [2] (@ 10 μM, read-out: inhibition in percent, IC50 (human) after pH stimulus) is 56%. The inhibition in vivo at 0.3 mg/kg in test [4] amounted to 12%.
Take `CCCCSc1nc(C(F)(F)F)ccc1CNC(=O)C(C)c1ccc(NS(C)(=O)=O)c(F)c1` (stereo not shown) [Example 122]: the values for the Ki in test [1] and in test [3] (read-out: Ki (rat) Cap.) were 0.7 nM and 0.6 nM, respectively. For the same compound, the IC50 in test [2] came to 40.4 nM. In test [4], the inhibition in vivo at 0.3 mg/kg came to 33%.
On the same counts, the results for `CC(C)CCOc1nc(C(F)(F)F)ccc1CNC(=O)C(C)c1ccc(NS(C)(=O)=O)c(F)c1` (stereo not shown) [Example 123, 2-(3-fluoro-4-methylsulfonamido-phenyl)-N-[2-(3-methyl-butoxy)-6-trifluoromethyl-pyridin-3-ylmethyl]-propionamide] are 0.8 nM, 0.6 nM, 15.1 nM and 47%.
On the same counts, the results for `CC(C(=O)NCc1ccc(C(F)(F)F)nc1OCC1CC1C)c1ccc(NS(C)(=O)=O)c(F)c1` (stereo not shown) [Example 124, 2-(3-fluoro-4-methylsulfonamido-phenyl)-N-[2-(2-methyl-cyclopropylmethoxy)-6-trifluoromethyl-pyridin-3-ylmethyl]-propionamide] are 0.3 nM, 0.4 nM, 5.1 nM and 39%.
On the same counts, the results for `CC1CCN(c2nc(C(F)(F)Cl)ccc2CNC(=O)C(C)c2ccc(NS(C)(=O)=O)c(F)c2)CC1` (stereo not shown) [Example 131] are 0.3 nM, 0.4 nM, 5.9 nM and 26%.
For `CC(C(=O)NCc1ccc(C(F)(F)Cl)nc1N1CCCCCC1)c1ccc(NS(C)(=O)=O)c(F)c1` (stereo not shown) [Example 132, N-[2-azepan-1-yl-6-(chloro-difluoro-methyl)-pyridin-3-ylmethyl]-2-(3-fluoro-4-methylsulfonamido-phenyl)-propionamide], in test [2], it took 14.7 nM to reach half-maximal inhibition (IC50). For the same compound, the Ki in test [3] (read-out: Ki (rat) Cap.) worked out at 0.7 nM. Also, the inhibition in vivo at 0.3 mg/kg in test [4] is 0%.
Turning to `CC(C(=O)NCc1ccc(C(F)(F)F)nc1N1CCC(c2ccccc2)CC1)c1ccc(NS(C)(=O)=O)c(F)c1` (stereo not shown) [Example 137], in test [3] (read-out: Ki (rat) Cap.), the Ki is 1.9 nM. Besides, the inhibition in vivo at 0.3 mg/kg in test [4] was 9%.
Consider `CC(C(=O)NCc1ccc(C(F)(F)F)nc1N1CCC(F)CC1)c1ccc(NS(C)(=O)=O)c(F)c1` (stereo not shown) [Example 138, 2-(3-fluoro-4-methylsulfonamido-phenyl)-N-(4-fluoro-6′-trifluoromethyl-3,4,5,6-tetrahydro-2H-[1,2′]bipyridinyl-3′-ylmethyl)-propionamide], for which the results for the Ki in test [1] and in test [3] (read-out: Ki (rat) Cap.) were 0.5 nM and 1.2 nM, respectively. Moreover, half-maximal inhibition in test [2] (IC50) required 19.8 nM. For the same compound, the inhibition in vivo at 0.3 mg/kg in test [4] worked out at 0%.
On the same counts, the results for `CC(C(=O)NCc1ccc(C(F)(F)F)nc1N1CC=CCC1)c1ccc(NS(C)(=O)=O)c(F)c1` (stereo not shown) [Example 139, 2-(3-fluoro-4-methylsulfonamido-phenyl)-N-(6′-trifluoromethyl-3,6-dihydro-2H-[1,2′]bipyridinyl-3′-ylmethyl)-propionamide] are 0.3 nM, 0.9 nM, 12.1 nM and 43%.
On the same counts, the results for `CC(C(=O)NCc1ccc(C(F)(F)F)nc1-c1ccc(Cl)cc1)c1ccc(NS(C)(=O)=O)c(F)c1` (stereo not shown) [Example 147, N-[2-(4-chloro-phenyl)-6-trifluoromethyl-pyridin-3-ylmethyl]-2-(3-fluoro-4-methylsulfonamido-phenyl)-propionamide] are 0.7 nM, 1 nM, 10.4 nM and 3%.
For `CC(C(=O)NCc1ccc(C(C)(C)C)cc1OC1CCCCC1)c1ccc(NS(C)(=O)=O)c(F)c1` (stereo not shown) [Example 154, N-(4-tert-butyl-2-cyclohexyloxy-benzyl)-2-(3-fluoro-4-methylsulfonamido-phenyl)-propionamide], in that order: 8.1 nM, 1.7 nM, 534 nM and 12%.
Regarding `CC(C(=O)NCc1ccc(C(F)(F)F)nc1N1Cc2ccccc2C1)c1ccc(NS(C)(=O)=O)c(F)c1` (stereo not shown) [Example 188, N-[2-(1,3-dihydro-isoindol-2-yl)-6-trifluoromethyl-pyridin-3-ylmethyl]-2-(3-fluoro-4-methylsulfonamido-phenyl)-propionamide], the Ki in test [1] and in test [3] (read-out: Ki (rat) Cap.) was 5 nM throughout. Further, 192 nM corresponded to half-maximal inhibition in test [2] (IC50). Besides, the inhibition in vivo at 0.3 mg/kg in test [4] worked out at 0%.
